US8193203B2, “Bicyclic compounds having activity at the CXCR4 receptor” (Allergan, Inc., priority 2008, dated 2012)

Molecular target: T1, human CXCR4 receptor (Homo sapiens, UniProt P61073)
T1 construct: expressed in transfected cells
Assay: Measurement of intracellular Ca+2 responses (FLIPR), antagonism of the SDF-1α response
Format: cell-based
Settings: for IC50: HEK-Gqi5 cells stably expressing human CXCR4, Fluo-4 FLIPR, antagonism of SDF-1α 1.9 nM (EC65); for CXCR4 (% Inh): percent antagonism of SDF-1α 1.9 nM (EC65) response, HEK-Gqi5 human CXCR4 cells, value in brackets
Method in brief: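 HEK-Gqi5 cells stably expressing CXCR4, Fluo-4-loaded (2 uM, 40 min, 37 °C), read on FLIPR. Compound (2.44-40,000 nM) added first for agonism, then SDF-1α at 1.9 nM final (EC65); IC50 and percent antagonism from second-addition calcium signal.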

T1 sequence (P61073 whole entry): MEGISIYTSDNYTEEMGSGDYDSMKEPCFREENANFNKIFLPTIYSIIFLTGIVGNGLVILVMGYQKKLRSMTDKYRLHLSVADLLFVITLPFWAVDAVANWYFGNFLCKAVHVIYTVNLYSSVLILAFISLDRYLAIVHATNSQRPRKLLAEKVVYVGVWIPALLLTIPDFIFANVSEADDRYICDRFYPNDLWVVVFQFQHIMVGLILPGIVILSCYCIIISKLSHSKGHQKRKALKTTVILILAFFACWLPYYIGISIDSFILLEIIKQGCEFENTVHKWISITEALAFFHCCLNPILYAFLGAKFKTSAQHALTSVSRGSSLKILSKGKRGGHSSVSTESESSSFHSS

IC50 (values in nM) [nM]	CXCR4 (% Inh) [%]	IC50 (values given in μM) [nM]	Compound
56	96		COc1cc2nc(NCC3CNC3)nc(NC3CCN(Cc4c(OCCN(C)C)cccc4N(C)C)CC3)c2cc1OC [Compound 230, N2-(Azetidin-3-ylmethyl)-N4-(1-(2-(dimethylamino)-6-(2-(dimethylamino)ethoxy)benzyl)piperidin-4-yl)-6,7-dimethoxyquinazoline-2,4-diamine]
131	96		COc1cc2nc(SCCN(C)C)nc(NC3CCN(Cc4c(OCCN(C)C)cccc4N(C)C)CC3)c2cc1OC [Compound 231, N-(1-(2-(Dimethylamino)-6-(2-(dimethylamino)ethoxy)benzyl)piperidin-4-yl)-2-(2-(dimethylamino)ethylthio)-6,7-dimethoxyquinazolin-4-amine]
	92	1900	N˜4˜-{1-[2-(Dimethylamino)-6-methoxybenzyl]pyrrolidin-3-yl}-N˜2˜-[3-(dimethylamino)propyl]-6,7-dimethoxyquinazoline-2,4-diamine [Compound 161]
538	97		N˜4˜-{1-[2-(Dimethylamino)-6-methoxybenzyl]pyrrolidin-3-yl}-N˜2˜-[3-(dimethylamino)propyl]-6,7-dimethoxyquinazoline-2,4-diamine [Compound 165]

Compound	IC50 (values in nM) [nM]	CXCR4 (% Inh) [%]	IC50 (values given in μM) [nM]
N˜4˜-(1-{2-(Dimethylamino)-6-[2-(dimethylamino)ethoxy]benzyl}piperidin-4-yl)-6,7-dimethoxy-N2(1H-1,2,4-triazol-5-ylmethyl)quinazoline-2,4-diamine [Compound 211]	25	98	
